Starred links: 1 amine or outer side, 2 acyl side, 3 side chain; linkers in the order of their positions; H or OH if unused. Positions of bridges follow the written chain, without caps; N, C: chain ends. Non-standard residues stand in square brackets, D forms with d. Residues, ends and D or L forms follow the SMILES beside them. Phe(4-OC2H4NH2,2,3-(CH2)3) = NCCOc1ccc(C[C@H](N)C(=O)O)c2c1CCC2; Trp(7-cPr) = N[C@@H](Cc1c[nH]c2c(C3CC3)cccc12)C(=O)O; NH(CH2CH2O)4CH2CO = O=C(COCCOCCOCCOCCN[*:1])[*:2]; Trp(7-Me) = Cc1cccc2c(C[C@H](N)C(=O)O)c[nH]c12; 2Nal = N[C@@H](Cc1ccc2ccccc2c1)C(=O)O; X1 = O=C(C(N[*:1])C1(S[*:3])CC1)[*:2]; Thp(SO2) = NC1(C(=O)O)CCS(=O)(=O)CC1; AEF = NCCOc1ccc(C[C@H](N)C(=O)O)cc1; 3Pal = N[C@@H](Cc1cccnc1)C(=O)O; Cit = NC(=O)NCCC[C@H](N)C(=O)O; Pen = CC(C)(S)[C@H](N)C(=O)O; Thp = NC1(C(=O)O)CCOCC1; AEEA = NCCOCCOCC(=O)O; PEG1 = NCCOCCC(=O)O; Ahx = NCCCCCC(=O)O; Sar = CNCC(=O)O
Legend:
IL-23R = molecular target: T1, IL-23R (Homo sapiens, UniProt Q5VWK5); assay: IL-23R reporter gene assay (HEK-blue IL23 reporter gene cell line, rhIL23 stimulation); assay type: cell-based; settings: Inhibition of IL-23R, rhIL23 1 ng/mL, 24 hours
T1 construct: host or cells: HEK-blue IL23 reporter gene cell line
T1 sequence (Q5VWK5 24-629): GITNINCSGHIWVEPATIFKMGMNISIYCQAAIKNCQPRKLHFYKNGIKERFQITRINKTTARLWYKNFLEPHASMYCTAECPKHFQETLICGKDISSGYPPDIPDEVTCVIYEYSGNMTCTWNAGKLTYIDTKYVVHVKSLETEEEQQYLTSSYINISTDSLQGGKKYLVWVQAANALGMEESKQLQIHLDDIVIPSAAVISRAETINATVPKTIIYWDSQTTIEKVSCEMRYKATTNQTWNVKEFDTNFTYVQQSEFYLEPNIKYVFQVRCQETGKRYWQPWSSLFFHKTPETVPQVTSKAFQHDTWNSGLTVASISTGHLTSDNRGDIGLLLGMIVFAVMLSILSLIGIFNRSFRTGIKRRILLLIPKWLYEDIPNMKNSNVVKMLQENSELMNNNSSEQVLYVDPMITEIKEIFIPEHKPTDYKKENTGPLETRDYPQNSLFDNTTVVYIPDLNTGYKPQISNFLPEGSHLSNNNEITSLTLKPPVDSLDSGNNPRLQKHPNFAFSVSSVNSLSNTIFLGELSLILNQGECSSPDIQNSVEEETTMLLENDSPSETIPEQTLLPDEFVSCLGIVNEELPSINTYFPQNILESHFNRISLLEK
Procedure: 2. IL-23R reporter gene assay
The purpose of this assay was to assess the ability of compounds to inhibit the binding of IL23p19 to IL23R in a reporter gene system. The HEK-blue IL23 reporter gene cell line (Invivogen, hkb-il23) was cultured in DMEM + 10% FBS + 100 ug/mL Normocin medium. When the cell density reached 80%-90%, 5000 cells/well were plated into a 384-well plate, and the plate was incubated overnight at 37°C with 5% CO2. Then, the compound stock solution was diluted in DMSO, and 40 nL of the dilution was transferred into the 384-well culture plate by Echo. The plate was incubated at 37°C with 5% CO2 for 0.5 hours. 40 nL/well of rhIL23 (R&D, 1290-IL) was added to the 384-well cell culture plate at a final concentration of 1 ng/mL, and the plate was incubated at 37°C with 5% CO2 for 24 hours. 18 µL of Quanti-Blue™ solution was added to a new 384-well plate. 2 µL/well of cell culture supernatant was transferred into the 384-well plate prepared in Step 6, and the plate was incubated at 37°C with 5% CO2 for 1 hour. Absorbance values at […] were read on BMG. The binding ability of the compounds was assessed using the following formula, and IC50 values were obtained by fitting with Graphpad.
Calculation formula of inhibition rate: [formula] • where Data negative: mean of DMSO control group; and • Data positive: mean of non-IL23-stimulated group
The calculation formula of IC50 was as follows: Y = Bottom + (Top−Bottom)/(1+10^(∧)((LogIC50−X)*HillSlope)) [formula] • where X: concentration of compound; and • Y: inhibition rate of compound Table 2. Inhibition of IL-23R by test compounds

IL-23α/IL-12β and IL-23R = molecular target: T2, IL-23α/IL-12β and IL-23R (Homo sapiens, UniProt Q5VWK5); assay: IL-23α/IL-12β and IL-23R binding assay (TR-FRET/HTRF); settings: inhibition of the binding of IL-23α/IL-12β to IL-23R, TR-FRET; both proteins 0.3 nM
T2 construct: purchased ACRO ILR-H82F3 (IL-23R); ILB-H52W5 (IL-23α/IL-12β)
T2 sequence (Q5VWK5 24-353 limits assumed): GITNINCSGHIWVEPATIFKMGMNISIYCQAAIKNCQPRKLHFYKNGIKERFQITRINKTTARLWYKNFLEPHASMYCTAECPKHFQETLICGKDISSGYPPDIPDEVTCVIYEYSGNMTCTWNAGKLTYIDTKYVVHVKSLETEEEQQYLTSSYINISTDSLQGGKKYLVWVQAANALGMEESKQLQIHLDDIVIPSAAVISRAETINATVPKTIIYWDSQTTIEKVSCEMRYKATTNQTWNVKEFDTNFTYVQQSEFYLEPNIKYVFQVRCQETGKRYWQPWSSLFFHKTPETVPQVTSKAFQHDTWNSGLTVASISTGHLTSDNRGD
Procedure: 1. IL-23α/IL-12β and IL-23R binding assay
Compounds were tested for their inhibition on the binding of IL-23α/IL-12β to IL-23R by the TR-FRET method. Solutions of proteins IL-23α/IL-12β (ACRO, Cat# ILB-H52W5) and IL-23R (ACRO, Cat# ILR-H82F3) were prepared in reaction buffer PPI (PerkinElmer, Cat# 61DB10RDF). The final concentrations of IL-23α/IL-12β and IL-23R in the reaction mixture were both 0.3 nM. Positive reference Guselkumab was 3-fold diluted from an initial concentration of 30 nM, with 10 doses. 0.1 µL of the positive reference diluted in the reaction buffer was delivered to a 384-well plate (Grenier, Cat# 784075) by the acoustic liquid delivery technique (Echo 655), and the plate was centrifuged at 1000 rpm for 1 minute. 2.5 µL of IL-23α/IL-12β solution was transferred into the 384-well reaction plate, and the plate was centrifuged at 1000 rpm for 1 minute, and incubated at 25°C for 60 minutes. 2.5 µL of IL-23R solution was transferred into the 384-well reaction plate, and the plate was centrifuged at 1000 rpm for 1 minute. 5 µL of Streptavidin-Tb cryptate and Anti 6HIS-d2 detection mixture was transferred into the 384-well reaction plate, and the plate was centrifuged at 1000 rpm for 1 minute, and incubated at 25°C for 60 minutes. Finally, the HTRF signal (Ratio 665/620 nm) was read with a BMG high-throughput drug screening multifunctional microplate reader. IC50 values were obtained by nonlinear regression curve fitting using GraphPad Prism software.

[1] = Pharmacokinetic test in mice (intravenous and intragastric, plasma LC-MS/MS); assay type: in vivo; settings: male, mouse, Balb/c mice
Procedure: 4. Pharmacokinetic test in mice
4.1. Experimental animals: Male Balb/c mice (20-25 g, 18 mice/compound) were purchased from Chengdu Dossy Experimental Animals Co., Ltd.
4.2. Experimental design: On the day of the experiment, the Balb/c mice were randomly grouped by body weight. The animals were fasted with water available for 12-14 h one day before the administration, and were fed 4 h after the administration. Table 4. Administration information
Before and after administration, 0.06 mL of blood was taken from the orbit under isoflurane anaesthesia, and placed in an EDTAK2 centrifuge tube. The tube was centrifuged at 5000 rpm at 4°C for 10 min, and plasma was collected. The blood collection time points for the intravenous group and intragastric group were both 0 min, 5 min, 15 min, 30 min, 1 h, 2 h, 4 h, 6 h, 8 h, and 24 h. Before analysis and detection, all samples were stored at -80°C, and the samples were quantitatively analysed by LC-MS/MS. Table 5. Pharmacokinetic parameters of test compounds in mouse plasma

## CC(=O)NCCCC[C@@H]1NC(=O)[C@H](Cc2c[nH]c3c(C)cccc23)NC(=O)[C@H]([C@@H](C)O)NC(=O)[C@H](Cc2c[nH]cn2)NC(=O)[C@H]2NC(=O)COCCOCCOCCOCCNC(=O)CC[C@@H](C(=O)N[C@@H](CC(N)=O)C(=O)N[C@@H](Cc3cccnc3)C(=O)N(C)CC(N)=O)NC(=O)C3(CCOCC3)NC(=O)[C@H](Cc3ccc4ccccc4c3)NC(=O)[C@H](Cc3ccc(OCCN)cc3)NC(=O)[C@@H](NC1=O)C(C)(C)SSC2(C)C [Compound 29] ([NH(CH2CH2O)4CH2CO][Pen]HT[Trp(7-Me)]K(Ac)[Pen][AEF][2Nal][Thp]EN[3Pal][Sar]-NH2; disulfide 2-7; lactam N-11)
IL-23R
  IC50: 1.72 nM
IL-23α/IL-12β and IL-23R
  IC50: 0.089 nM

## CC(=O)NC1C(=O)N[C@@H](Cc2c[nH]cn2)C(=O)N[C@@H]([C@@H](C)O)C(=O)N[C@@H](Cc2c[nH]c3c(C4CC4)cccc23)C(=O)N[C@@H](CCC(N)=O)C(=O)N[C@H](C(=O)N[C@@H](Cc2ccc(OCCN)c3c2CCC3)C(=O)N[C@@H](Cc2ccc3ccccc3c2)C(=O)NC2(C(=O)N[C@@H](CCC(=O)O)C(=O)N[C@@H](CC(N)=O)C(=O)N[C@@H](Cc3cccnc3)C(=O)N(C)CC(N)=O)CCS(=O)(=O)CC2)C(C)(C)SSC12CC2 (stereo partly shown) [Compound 24] (Ac-[X1]HT[Trp(7-cPr)]Q[Pen][Phe(4-OC2H4NH2,2,3-(CH2)3)][2Nal][Thp(SO2)]EN[3Pal][Sar]-NH2; disulfide 1-6)
[1]; iv, i.v. (1 mg/kg)
  AUC(0-t): 6.77 ± 0.183 µg·h/mL
  clearance: 0.145 ± 0.00384 L/h/kg
[1]; iv, i.v. (1 mg/kg), read-out: Vdss
  Vd: 0.225 ± 0.017 L/kg
[1]; po, i.g. (10 mg/kg)
  AUC(0-t): 0.227 ± 0.139 µg·h/mL
  bioavailability: 0.335 ± 0.2%
IL-23R
  IC50: 9.38 nM
IL-23α/IL-12β and IL-23R
  IC50: 0.063 nM

## CC(=O)NCCCC[C@@H]1NC(=O)[C@H](Cc2c[nH]c3c(C)cccc23)NC(=O)[C@H]([C@@H](C)O)NC(=O)[C@H](CC(N)=O)NC(=O)[C@@H](NC(C)=O)C(C)(C)SSC(C)(C)[C@@H](C(=O)N[C@@H](Cc2ccc(OCCN)cc2)C(=O)N[C@@H](Cc2ccc3ccccc3c2)C(=O)NC2(C(=O)N[C@@H](CCC(=O)O)C(=O)N[C@@H](CC(N)=O)C(=O)N[C@@H](Cc3cccnc3)C(=O)N(C)CC(N)=O)CCS(=O)(=O)CC2)NC1=O [Compound 9]
IL-23R
  IC50: 2.56 nM
IL-23α/IL-12β and IL-23R
  IC50: 0.056 nM

## CC(=O)NCCCC[C@@H]1NC(=O)[C@H](Cc2c[nH]c3c(C)cccc23)NC(=O)[C@H]([C@@H](C)O)NC(=O)[C@H](Cc2c[nH]cn2)NC(=O)[C@H]2NC(=O)COCCOCCNC(=O)CC[C@@H](C(=O)N[C@@H](CC(N)=O)C(=O)N[C@@H](Cc3cccnc3)C(=O)N(C)CC(N)=O)NC(=O)C3(CCOCC3)NC(=O)[C@H](Cc3ccc4ccccc4c3)NC(=O)[C@H](Cc3ccc(OCCN)cc3)NC(=O)[C@@H](NC1=O)C(C)(C)SSC2(C)C [Compound 27] ([AEEA][Pen]HT[Trp(7-Me)]K(Ac)[Pen][AEF][2Nal][Thp]EN[3Pal][Sar]-NH2; disulfide 2-7; lactam N-11)
IL-23R
  IC50: 1.37 nM
IL-23α/IL-12β and IL-23R
  IC50: 0.114 nM

## CC(=O)NCCCC[C@@H]1NC(=O)[C@H](Cc2c[nH]c3c(C)cccc23)NC(=O)[C@H]([C@@H](C)O)NC(=O)[C@H](Cc2c[nH]cn2)NC(=O)[C@H]2NC(=O)CCOCCNC(=O)CC[C@@H](C(=O)N[C@@H](CC(N)=O)C(=O)N[C@@H](Cc3cccnc3)C(=O)N(C)CC(N)=O)NC(=O)C3(CCOCC3)NC(=O)[C@H](Cc3ccc4ccccc4c3)NC(=O)[C@H](Cc3ccc(OCCN)cc3)NC(=O)[C@@H](NC1=O)C(C)(C)SSC2(C)C [Compound 28] ([PEG1][Pen]HT[Trp(7-Me)]K(Ac)[Pen][AEF][2Nal][Thp]EN[3Pal][Sar]-NH2; disulfide 2-7; lactam N-11)
IL-23R
  IC50: 6.27 nM
IL-23α/IL-12β and IL-23R
  IC50: 0.122 nM

## CC(=O)N[C@@H]1C(=O)N[C@@H](Cc2c[nH]cn2)C(=O)N[C@@H]([C@@H](C)O)C(=O)N[C@@H](Cc2c[nH]c3c(C4CC4)cccc23)C(=O)N[C@@H](CCCNC(N)=O)C(=O)N[C@H](C(=O)N[C@@H](Cc2ccc(OCCN)cc2)C(=O)N[C@@H](Cc2ccc3ccccc3c2)C(=O)NC2(C(=O)N[C@@H](CCC(=O)O)C(=O)N[C@@H](CC(N)=O)C(=O)N[C@@H](Cc3cccnc3)C(=O)N(C)CC(N)=O)CCOCC2)C(C)(C)SSC1(C)C [Compound 12] (Ac-[Pen]HT[Trp(7-cPr)][Cit][Pen][AEF][2Nal][Thp]EN[3Pal][Sar]-NH2; disulfide 1-6)
IL-23R
  IC50: 3.58 nM
IL-23α/IL-12β and IL-23R
  IC50: 0.0417 nM

## CC(=O)NCCCC[C@@H]1NC(=O)[C@H](Cc2c[nH]c3c(C)cccc23)NC(=O)[C@H]([C@@H](C)O)NC(=O)[C@H](Cc2c[nH]cn2)NC(=O)[C@H]2NC(=O)CCCCCNC(=O)CC[C@@H](C(=O)N[C@@H](CC(N)=O)C(=O)N[C@@H](Cc3cccnc3)C(=O)N(C)CC(N)=O)NC(=O)C3(CCOCC3)NC(=O)[C@H](Cc3ccc4ccccc4c3)NC(=O)[C@H](Cc3ccc(OCCN)cc3)NC(=O)[C@@H](NC1=O)C(C)(C)SSC2(C)C [Compound 11] ([Ahx][Pen]HT[Trp(7-Me)]K(Ac)[Pen][AEF][2Nal][Thp]EN[3Pal][Sar]-NH2; disulfide 2-7; lactam N-11)
IL-23R
  IC50: 7.47 nM
IL-23α/IL-12β and IL-23R
  IC50: 0.124 nM

Source: EP4729529A1, “PREPARATION OF PEPTIDE INHIBITOR OF INTERLEUKIN-23 RECEPTOR AND USE THEREOF” (Xizang Haisco Pharmaceutical Co., Ltd., priority 2023, dated 2024)
